Reference: PubChem BioAssay (NCI)
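GI50 is the concentration that inhibits growth by half. TGI: total growth inhibition.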

Legend:
Assay in all cases: NCI anticancer screen, dose series, 384-well format
786-0 renal = tested on: 786-0 renal
A498 renal = tested on: A498 renal
A549 NSCLC = tested on: A549 NSCLC
ACHN renal = tested on: ACHN renal
BT-549 breast = tested on: BT-549 breast
CAKI-1 renal = tested on: CAKI-1 renal
CCRF-CEM leukemia = tested on: CCRF-CEM leukemia
COLO 205 colon = tested on: COLO 205 colon
DU-145 prostate = tested on: DU-145 prostate
EKVX NSCLC = tested on: EKVX NSCLC
HCC-2998 colon = tested on: HCC-2998 colon
HCT-116 colon = tested on: HCT-116 colon
HCT-15 colon = tested on: HCT-15 colon
HL-60(TB) leukemia = tested on: HL-60(TB) leukemia
HOP-62 NSCLC = tested on: HOP-62 NSCLC
HOP-92 NSCLC = tested on: HOP-92 NSCLC
HS 578T breast = tested on: HS 578T breast
HT29 colon = tested on: HT29 colon
IGROV1 ovarian = tested on: IGROV1 ovarian
K-562 leukemia = tested on: K-562 leukemia
KM12 colon = tested on: KM12 colon
LOX IMVI melanoma = tested on: LOX IMVI melanoma
M14 melanoma = tested on: M14 melanoma
MALME-3M melanoma = tested on: MALME-3M melanoma
MCF7 breast = tested on: MCF7 breast
MDA-MB-231 breast = tested on: MDA-MB-231 breast
MDA-MB-435 melanoma = tested on: MDA-MB-435 melanoma
MDA-MB-468 breast = tested on: MDA-MB-468 breast
MOLT-4 leukemia = tested on: MOLT-4 leukemia
NCI-H226 lung = tested on: NCI-H226 lung
NCI-H23 lung = tested on: NCI-H23 lung
NCI-H322M lung = tested on: NCI-H322M lung
NCI-H460 NSCLC = tested on: NCI-H460 NSCLC
NCI-H522 lung = tested on: NCI-H522 lung
NCI/ADR-RES ovarian = tested on: NCI/ADR-RES ovarian
OVCAR-3 ovarian = tested on: OVCAR-3 ovarian
OVCAR-4 ovarian = tested on: OVCAR-4 ovarian
OVCAR-5 ovarian = tested on: OVCAR-5 ovarian
OVCAR-8 ovarian = tested on: OVCAR-8 ovarian
PC-3 prostate = tested on: PC-3 prostate
RPMI-8226 leukemia = tested on: RPMI-8226 leukemia
RXF 393 renal = tested on: RXF 393 renal
SK-MEL-2 melanoma = tested on: SK-MEL-2 melanoma
SK-MEL-28 melanoma = tested on: SK-MEL-28 melanoma
SK-MEL-5 melanoma = tested on: SK-MEL-5 melanoma
SK-OV-3 ovarian = tested on: SK-OV-3 ovarian
SN12C renal = tested on: SN12C renal
SR leukemia = tested on: SR leukemia
SW-620 colon = tested on: SW-620 colon
T-47D breast = tested on: T-47D breast
TK-10 renal = tested on: TK-10 renal
U251 glioblastoma = tested on: U251 glioblastoma
UACC-257 melanoma = tested on: UACC-257 melanoma
UACC-62 melanoma = tested on: UACC-62 melanoma
UO-31 renal = tested on: UO-31 renal
SF-268 CNS = tested on: SF-268 CNS
SF-295 CNS = tested on: SF-295 CNS
SF-539 CNS = tested on: SF-539 CNS
SNB-19 CNS = tested on: SNB-19 CNS
SNB-75 CNS = tested on: SNB-75 CNS

## CO[C@@]12[C@H](COC(N)=O)C3=C(C(=O)C(C)=C(N)C3=O)N1C[C@@H]1N[C@@H]12
786-0 renal
  GI50: 0.261 µM
  TGI: 3.69 µM
A498 renal
  GI50: 0.179 µM
  TGI: 0.932 µM
A549 NSCLC
  GI50: 0.0929 µM
  TGI: 1.06 µM
ACHN renal
  GI50: 0.169 µM
  TGI: 0.844 µM
BT-549 breast
  GI50: 0.258 µM
  TGI: 1.89 µM
CAKI-1 renal
  GI50: 0.226 µM
  TGI: 1.64 µM
CCRF-CEM leukemia
  GI50: 0.108 µM
  TGI: 0.257 µM
COLO 205 colon
  GI50: 0.25 µM
  TGI: 1.89 µM
DU-145 prostate
  GI50: 0.0447 µM
  TGI: 0.208 µM
EKVX NSCLC
  GI50: 4.52 µM
  TGI: 11.5 µM
HCC-2998 colon
  GI50: 0.236 µM
  TGI: 1.38 µM
HCT-116 colon
  GI50: 0.0823 µM
  TGI: 1.36 µM
HCT-15 colon
  GI50: 0.328 µM
  TGI: 2.17 µM
HL-60(TB) leukemia
  GI50: 0.0178 µM
  TGI: 0.041 µM
HOP-62 NSCLC
  GI50: 0.0387 µM
  TGI: 0.213 µM
HOP-92 NSCLC
  GI50: 1.85 µM
  TGI: 6.78 µM
HS 578T breast
  GI50: 3.26 µM
  TGI: 7.5 µM
HT29 colon
  GI50: 0.368 µM
  TGI: 2.25 µM
IGROV1 ovarian
  GI50: 1.03 µM
  TGI: 2.63 µM
K-562 leukemia
  GI50: 0.914 µM
  TGI: 2.83 µM
KM12 colon
  GI50: 0.582 µM
  TGI: 3.6 µM
LOX IMVI melanoma
  GI50: 0.159 µM
  TGI: 1.3 µM
M14 melanoma
  GI50: 0.0974 µM
  TGI: 1.19 µM
MALME-3M melanoma
  GI50: 0.576 µM
  TGI: 1.96 µM
MCF7 breast
  GI50: 0.0947 µM
  TGI: 2.87 µM
MDA-MB-231 breast
  GI50: 4.01 µM
  TGI: 10.7 µM
MDA-MB-435 melanoma
  GI50: 1.71 µM
  TGI: 8.72 µM
MDA-MB-468 breast
  GI50: 0.0718 µM
  TGI: 0.212 µM
MOLT-4 leukemia
  GI50: 0.0168 µM
  TGI: 0.0311 µM
NCI-H226 lung
  GI50: 0.553 µM
  TGI: 3.25 µM
NCI-H23 lung
  GI50: 0.046 µM
  TGI: 0.162 µM
NCI-H322M lung
  GI50: 0.401 µM
  TGI: 1.45 µM
NCI-H460 NSCLC
  TGI: 0.11 µM
NCI-H522 lung
  GI50: 0.276 µM
  TGI: 1.37 µM
NCI/ADR-RES ovarian
  GI50: 5.8 µM
  TGI: > 43 µM
OVCAR-3 ovarian
  GI50: 1.32 µM
  TGI: 3.77 µM
OVCAR-4 ovarian
  GI50: 2.27 µM
  TGI: 5.23 µM
OVCAR-5 ovarian
  GI50: 1.12 µM
  TGI: 4.35 µM
OVCAR-8 ovarian
  GI50: 0.439 µM
  TGI: 4.6 µM
PC-3 prostate
  GI50: 2.34 µM
  TGI: 9.94 µM
RPMI-8226 leukemia
  GI50: 0.161 µM
  TGI: 0.675 µM
RXF 393 renal
  GI50: 1.6 µM
  TGI: 3.19 µM
SK-MEL-2 melanoma
  GI50: 1.25 µM
  TGI: 2.68 µM
SK-MEL-28 melanoma
  GI50: 1.24 µM
  TGI: 5.21 µM
SK-MEL-5 melanoma
  GI50: 0.0405 µM
  TGI: 0.102 µM
SK-OV-3 ovarian
  GI50: 0.137 µM
  TGI: 0.77 µM
SN12C renal
  GI50: 0.0989 µM
  TGI: 3.16 µM
SR leukemia
  GI50: 0.0135 µM
  TGI: 0.0281 µM
SW-620 colon
  GI50: 0.145 µM
  TGI: 1.85 µM
T-47D breast
  GI50: 1.6 µM
  TGI: 11.2 µM
TK-10 renal
  GI50: 1.72 µM
  TGI: 13.1 µM
U251 glioblastoma
  GI50: 0.111 µM
  TGI: 1.5 µM
UACC-257 melanoma
  GI50: 0.914 µM
  TGI: 2.95 µM
UACC-62 melanoma
  GI50: 0.1 µM
  TGI: 1.15 µM
UO-31 renal
  GI50: 1.13 µM
  TGI: 4.71 µM

## O=c1[nH]cc(F)c(=O)[nH]1
786-0 renal
  GI50: 9.77 µM
A498 renal
  GI50: 5.89 µM
A549 NSCLC
  GI50: 2.21 µM
ACHN renal
  GI50: 11.6 µM
BT-549 breast
  GI50: 3.96 µM
CAKI-1 renal
  GI50: 9.98 µM
CCRF-CEM leukemia
  GI50: > 27.9 µM
COLO 205 colon
  GI50: 1.45 µM
DU-145 prostate
  GI50: 5.49 µM
HCC-2998 colon
  GI50: 13.6 µM
HCT-116 colon
  GI50: 3.94 µM
HCT-15 colon
  GI50: 5.28 µM
HL-60(TB) leukemia
  GI50: 11 µM
HOP-62 NSCLC
  GI50: 13.6 µM
HS 578T breast
  GI50: 12.1 µM
HT29 colon
  GI50: 7.03 µM
IGROV1 ovarian
  GI50: > 30.6 µM
K-562 leukemia
  GI50: 18.7 µM
KM12 colon
  GI50: 6.5 µM
LOX IMVI melanoma
  GI50: 17.1 µM
M14 melanoma
  GI50: 65.7 µM
MALME-3M melanoma
  GI50: 85.5 µM
MCF7 breast
  GI50: 2.58 µM
MDA-MB-231 breast
  GI50: > 89.7 µM
MDA-MB-435 melanoma
  GI50: 16.8 µM
MDA-MB-468 breast
  GI50: 41.8 µM
  TGI: > 86.2 µM
MOLT-4 leukemia
  GI50: 1.64 µM
  TGI: 3.26 µM
NCI-H23 lung
  GI50: 29.6 µM
NCI-H322M lung
  GI50: 32.7 µM
NCI-H460 NSCLC
  GI50: 3.23 µM
  TGI: 38.8 µM
NCI-H522 lung
  GI50: 55.6 µM
OVCAR-3 ovarian
  GI50: 6.27 µM
  TGI: > 86.5 µM
OVCAR-5 ovarian
  GI50: 13.1 µM
OVCAR-8 ovarian
  GI50: 37.2 µM
PC-3 prostate
  GI50: > 80.5 µM
RPMI-8226 leukemia
  GI50: 0.162 µM
  TGI: 0.476 µM
RXF 393 renal
  GI50: 27.7 µM
SF-268 CNS
  GI50: 45.2 µM
SF-295 CNS
  GI50: 22 µM
SF-539 CNS
  GI50: 4.2 µM
SK-MEL-28 melanoma
  GI50: 19.3 µM
SK-MEL-5 melanoma
  GI50: 5.77 µM
SK-OV-3 ovarian
  GI50: > 69.9 µM
SN12C renal
  GI50: 14.5 µM
SNB-19 CNS
  GI50: 51.7 µM
SNB-75 CNS
  GI50: 7.12 µM
  TGI: > 29.7 µM
SR leukemia
  GI50: 2 µM
  TGI: 6.89 µM
SW-620 colon
  GI50: 25 µM
T-47D breast
  GI50: 78.3 µM
TK-10 renal
  GI50: 35.1 µM
U251 glioblastoma
  GI50: 22 µM
UACC-62 melanoma
  GI50: 8.73 µM
UO-31 renal
  GI50: 8.23 µM
